Data as given in patent publication US9145375B2, “Quinazolinone compounds” (PRANA BIOTECHNOLOGY LIMITED, priority 2008, dated 2015).

Tests used:
Type in all cases: in vitro ADME
CYP2C9 = target: T1, CYP2C9 (Homo sapiens, UniProt P11712); assay: CYP450 isoform inhibition, recombinant enzymes, analysis by LCMS: CYP2C9
T1 construct: using a specific substrate approach in human liver microsomes; from tissue; host or cells: human liver microsomes
Protocol: (§1) CYP450 Isoform Inhibition
(§2) Microsomes containing individual recombinant human CYP450 enzymes (Supersomes™) were incubated in the presence of a fixed concentration of a probe substrate that forms a fluorescent metabolite upon CYP450-mediated metabolism.
(§3) A known inhibitor of each CYP450 isoform was included in each assay as a positive control and its IC50 was compared to literature values for acceptance of the assay.
(§4) The inherent fluorescence of the test compound was examined under the specific assay conditions for each isoform before and after the fluorometric assay to identify any compound-specific interference due to the parent compound or metabolic products. If the background fluorescence in these samples increased due to compound-specific interference, then the CYP450 inhibition samples were quantified using LC/MS assay.

CYP2C19 = target: T2, CYP2C19 (Homo sapiens, UniProt P33261); assay: CYP450 isoform inhibition, recombinant enzymes, analysis by LCMS: CYP2C19
T2 construct: using a specific substrate approach in human liver microsomes; from tissue; host or cells: human liver microsomes
T2 sequence (P33261 whole entry, canonical isoform): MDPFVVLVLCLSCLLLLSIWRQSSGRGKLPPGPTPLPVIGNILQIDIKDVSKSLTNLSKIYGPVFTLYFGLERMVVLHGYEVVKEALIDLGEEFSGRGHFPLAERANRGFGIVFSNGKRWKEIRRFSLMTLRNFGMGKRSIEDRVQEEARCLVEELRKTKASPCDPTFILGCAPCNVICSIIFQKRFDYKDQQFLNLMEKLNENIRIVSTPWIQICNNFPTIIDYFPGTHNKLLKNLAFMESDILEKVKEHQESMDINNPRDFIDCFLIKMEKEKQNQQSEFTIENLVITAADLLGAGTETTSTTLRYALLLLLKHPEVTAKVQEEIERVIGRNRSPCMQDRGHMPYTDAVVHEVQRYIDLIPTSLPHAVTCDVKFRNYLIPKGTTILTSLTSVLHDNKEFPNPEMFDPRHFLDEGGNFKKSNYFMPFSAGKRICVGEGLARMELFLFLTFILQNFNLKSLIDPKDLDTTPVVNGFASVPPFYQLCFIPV
Protocol: as §1, §2, §3, §4

CYP1A2 = target: T3, CYP1A2 (Homo sapiens, UniProt P05177); assay: CYP450 isoform inhibition, recombinant enzymes, analysis by LCMS: CYP1A2
T3 construct: using a specific substrate approach in human liver microsomes; from tissue; host or cells: human liver microsomes
T3 sequence (P05177 1-516): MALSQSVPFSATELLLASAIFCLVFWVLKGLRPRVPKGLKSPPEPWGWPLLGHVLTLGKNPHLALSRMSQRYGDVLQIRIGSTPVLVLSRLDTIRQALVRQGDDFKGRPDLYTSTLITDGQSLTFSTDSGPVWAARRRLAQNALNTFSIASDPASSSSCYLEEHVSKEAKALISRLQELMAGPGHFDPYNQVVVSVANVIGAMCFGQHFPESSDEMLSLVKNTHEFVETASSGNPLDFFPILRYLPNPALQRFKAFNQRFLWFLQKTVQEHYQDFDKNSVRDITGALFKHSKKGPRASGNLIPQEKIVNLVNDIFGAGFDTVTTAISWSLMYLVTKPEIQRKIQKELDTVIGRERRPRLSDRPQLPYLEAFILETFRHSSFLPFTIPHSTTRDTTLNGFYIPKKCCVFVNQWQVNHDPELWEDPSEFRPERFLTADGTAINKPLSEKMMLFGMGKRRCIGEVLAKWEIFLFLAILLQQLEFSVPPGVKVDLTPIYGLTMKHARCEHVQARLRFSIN
Protocol: as §1, §2, §3, §4

CYP2E1 = CYP2E1 (Homo sapiens, UniProt P05181); assay: CYP450 inhibition, specific substrate approach in human liver microsomes: CYP2E1; design: using a specific substrate approach in human liver microsomes; from tissue; host or cells: human liver microsomes
Chain of CYP2E1 (P05181 whole entry, canonical isoform): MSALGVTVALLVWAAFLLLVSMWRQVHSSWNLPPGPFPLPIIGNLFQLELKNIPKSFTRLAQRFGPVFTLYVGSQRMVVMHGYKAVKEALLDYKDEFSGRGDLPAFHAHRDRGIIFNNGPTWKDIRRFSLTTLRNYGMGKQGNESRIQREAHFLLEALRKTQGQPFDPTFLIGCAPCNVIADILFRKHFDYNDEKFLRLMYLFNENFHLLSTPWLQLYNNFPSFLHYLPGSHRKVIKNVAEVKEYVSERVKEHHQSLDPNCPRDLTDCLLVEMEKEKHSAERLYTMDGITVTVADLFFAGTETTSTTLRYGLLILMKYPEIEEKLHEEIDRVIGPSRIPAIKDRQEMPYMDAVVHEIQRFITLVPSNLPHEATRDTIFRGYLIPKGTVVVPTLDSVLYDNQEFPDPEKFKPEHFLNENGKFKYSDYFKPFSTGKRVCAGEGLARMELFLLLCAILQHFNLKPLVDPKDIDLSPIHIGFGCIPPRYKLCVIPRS
Protocol: CYP450 Isoform Inhibition Using a Specific Substrate Approach
The present study is a “Tier 2” screen to assess potential enzyme inhibition at a test compound concentration of 20 μM using a specific substrate approach in human liver microsomes.
The substrate specific enzyme inhibition study relies on the formation of a metabolite that is mediated by a specific CYP450 isoform using human liver microsomes. In the current study, the following reactions were monitored to assess interactions with specific CYP450 isoforms. A known inhibitor of each isoform was included in each assay as a positive control. The following IC50 values have been reported in the literature using equivalent assay conditions for each CYP450 isoform:
The reaction was initiated by the addition of an NADPH-regenerating system and was quenched by the addition of acetonitrile prior to determining the concentration (and apparent rate of formation) of the specific metabolite by LC/MS.
The IC50 was deemed to be the concentration at which there was a 50% reduction in the amount of metabolite formed, relative to the maximal extent of formation.

T1 sequence (P11712 whole entry, canonical isoform): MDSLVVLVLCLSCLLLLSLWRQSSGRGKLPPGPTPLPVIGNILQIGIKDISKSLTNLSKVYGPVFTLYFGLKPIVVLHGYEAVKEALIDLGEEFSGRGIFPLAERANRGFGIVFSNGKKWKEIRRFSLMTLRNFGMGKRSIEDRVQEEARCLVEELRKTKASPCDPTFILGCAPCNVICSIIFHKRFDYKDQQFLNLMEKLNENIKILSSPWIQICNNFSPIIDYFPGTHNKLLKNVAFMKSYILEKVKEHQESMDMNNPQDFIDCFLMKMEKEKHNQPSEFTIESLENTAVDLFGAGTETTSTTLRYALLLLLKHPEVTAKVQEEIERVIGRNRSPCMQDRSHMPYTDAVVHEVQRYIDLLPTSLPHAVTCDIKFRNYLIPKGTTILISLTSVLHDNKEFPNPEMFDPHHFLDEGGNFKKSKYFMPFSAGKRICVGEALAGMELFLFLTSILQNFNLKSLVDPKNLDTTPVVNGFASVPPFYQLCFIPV

Row | IC50 (CYP2C9) [µM] | IC50 (CYP2C19) [µM] | IC50 (CYP1A2) [µM] | IC50 (CYP2E1) [µM] | SMILES
1 | > 40 | > 40 | 25.7 |  | CNCc1nc2c(O)c(Cl)cc(Cl)c2c(=O)n1C [Compound F4161]
2 |  |  |  | > 20 | CCn1c(CN(C)C)nc2c(O)c(Cl)cc(Cl)c2c1=O.Cl [Compound F4268]
